Assay results published in patent US8669232B2, “Flavonol compounds, a bioactive extract/fraction from Ulmus wallichiana and its compounds for prevention for treatment of osteo-health related disorders” (Council of Scientific & Industrial Research, priority 2008, dated 2014).

Tests used:
calvarial osteoblasts [1] = experiment: Alkaline phosphatase activity assay in calvarial osteoblasts; assay type: cell-based, neonatal Sprague-Dawley rats
Experimental: (§1) Neonatal rat calvarial cell cultures are prepared as described previously (Chattopadhyay et al., Endocrinology 145:3451-62, 2004) using slight modification. Briefly, for calvarial osteoblast cultures, frontal and parietal bones from neonatal Sprague-Dawley rats (1-3 day old) were digested in 0.1% collagenase/0.1% dispase in α-MEM to obtain 5 sequential digests. The second through fifth digests are combined and grown to confluence at 37° C. and 5% CO2 in air in α-MEM, supplemented with 10% fetal bovine serum (FBS), 2 mM glutamine, 100 U/ml penicillin-streptomycin, non-essential amino acid solution and sodium pyruvate.
For alkaline phosphatase (ALP) assay, osteoblasts were plated in 96-well (2000 cells/well) plates in regular growth medium. Twenty-four hours later, when the cells formed a confluent monolayer, medium was replaced with α-MEM medium supplemented with 10% FBS, 10 mM β-glycerophosphate and 50 μg/ml ascorbic acid. Treatment was given with varying concentration of the test compound K012, K058, K068 and K100 at 1 nM and 100 nM concentration. Forty-eight hours after induction, ALP activity of the osteoblasts was determined as described by Akiyama et al (Exp Cell Res 235:362-369, 1997) with slight modifications. Briefly, cells were washed once with PBS and ALP activity was measured by adding ALP buffer (1 M diethanolamine, 0.5 mM MgCl2, 1 mg/ml PNPP, pH 9.0), incubating in 37° C., and absorbance (405 nm) was measured using a microplate spectrophotometer. Statistical significance was determined by paired two-tailed Student's t-tests.

calvarial osteoblasts [2] = experiment: In vitro mineralization of calvarial osteoblasts (alizarin red-S, von kossa); assay type: cell-based, neonatal Sprague-Dawley rats; details: for Von kossa staining (mineralized nodules) compared with controls (vehicle): 21 days culture
Experimental: as §1
Ability of cells to produce mineralized matrix is important with regard to development of materials for bone regeneration. Mineralization of extracellular matrix by osteoblasts was determined using alizarin red-S (AR-S) assay combined with cetylpyridinium chloride (CPC) extraction. (Stanford et al, J. Biol. Chem. 270:9420-9428; 1995.) Alizarin red is a dye that binds selectively to nascent calcium salts and is widely used for calcium mineral histochemistry. Cells were seeded onto a six well plate containing 10000 cells/well in culture medium supplemented with 10 mM β-glycerophosphate and 50 μg/ml ascorbic acid with test compounds K012, K058, K068 and K0100 at 1 nM and 100 nM concentration. Treatment was given for 21 days and after completion of the treatment samples were rinsed with PBS followed by fixation (4% HCHO for 20 min). Photomicrographs of the stained wells were taken. Subsequently, alizarin red-S stain was extracted using 10% (w/v) cetylpyridinium chloride (CPC) in […] sodium phosphate, pH 7.0, for 15 min at room temperature, and the resulting solutions were read on a Microplate reader with a test wavelength of 540 nm against a reference wavelength of 620 nm. Mineralization nodules were also seen by Von kossa staining procedure (A. M. Chou et al. Materials Science and Engineering C 20 (2002) 77-83.) After 21 days culture, cells in tissue culture wells were washed with PBS and immersed in 5% (w/v) silver nitrate solution for 45 min. After rinsing with distilled water, they were fixed in 5% (w/v) sodium bicarbonate formalin for 8 min. Finally, they were immersed in 5% (w/v) sodium thiosulphate solution for 5 min and washed thoroughly with water for 15 min and photomicrographs were taken.

Bone marrow cells (BMCs) = experiment: In vitro mineralization from mouse bone marrow; assay type: cell-based, balb/c mice; details: 1 nM and 100 nM, 21 days
Excerpt: Adult balb/c mice were used in this study. Bone marrow cells (BMCs) were harvested from the femurs and tibias of the animals, as described elsewhere (Maniatopoulos et al. Cell Tissue Res 1988:254:317-30.; Ishaug et al., J Biomed Mater Res 1997; 36:17-28.). Briefly, bones were aseptically excised from the hind limbs of the mice following ether euthanasia. The soft tissue was removed, and the proximal end of the femur and distal end of the tibia were clipped off using sterile scissors, a hole was created in the knee joint end of each bone with an needle, and the marrow was flushed from the shaft with control medium (CM) which consisted of α-MEM supplemented with 10% fetal calf serum, 100 U/ml penicillin, 100 U/ml streptomycin (Sigma, Chemical Co., St. Louis, Mo., USA). The cells were suspended in this medium, and the cell suspensions from all bones were combined in a centrifuge tube. The suspension was spun down at 800 rpm for 5 min. Cells were counted by using a haemocytometer. The supernatant was aspirated, and the pellet was re-suspended in fresh CM and then seeded into 12-well plates. 200000 cells/well were cultured in 12-well plates and in a humidified atmosphere, with 5% CO2, at 37° C. in the same medium supplemented with 10 mM-β-glycerophosphate, 50 μg/ml L-ascorbic acid and 10^−8M dexamethasone with different concentration of the test compound. This medium was replaced every other day (John et al. Trends. Biomater. Artif. Organs 2002:16(1):28-33.; Connolly. Clin Orthop 1995:313: 8-18.; Gebhart and Lane. Acta Orthop Belg 1991:57(2):130-43.; Gurpinar et al. J Biomater Appl 2003; 18(1):25-33; Lan and Wang, Blood Substitutes. Biotechnol 2003; 31(1):59-68.). Treatments K012, K058, K068 and K0100 at 1 nM and 100 nM concentration were given for 21 days and after completion of the treatment samples were rinsed with PBS followed by fixation (4% HCHO for […]). Samples were then rinsed with nanopure water and stained for 10 min with 40 mM AR-S, pH 4.2, at room temperature. Photomicrographs of the stained wells were taken. Subsequently, alizarin red-S stain was extracted using 10% (w/v) CPC in […] sodium phosphate, pH 7.0, for […] at room temperature, and the resulting solutions were read on a Microplate reader with a test wavelength of 540 nm against a reference wavelength of 620 nm.

osteoblast differentiation (summary of in vitro effects) (calvarial osteoblasts [1]) | SMILES | osteoblast mineralization (summary of in vitro effects) (calvarial osteoblasts [2]) | Von kossa staining (mineralized nodules) compared with controls (vehicle) (calvarial osteoblasts [2]) | mineralization of bone marrow osteoblasts (alizarin red staining) (Bone marrow cells (BMCs))
promoted | O=c1c(O)c(-c2ccc(O)c(O)c2)oc2cc(O)c(C3O[C@H](CO)[C@@H](O)[C@H](O)[C@H]3O)c(O)c12 (some centres unmarked) [K012, 6-Glucopyranosyl-3,3′,4′,5,7-pentahydroxyflavone] | promoted | increased | stimulated
promoted | O=C1c2c(cc(O)c([C@@H]3OC(CO)[C@@H](O)[C@H](O)C3O)c2O)O[C@@H](c2ccc(O)c(O)c2)[C@@H]1O (stereo partly drawn) [K058, (2S,3S)-(+)-3′,4′,5,7-tetrahydroxydihydroflavonol-6-C-β-D-glucopyranoside] | promoted | increased | stimulated
